{"source": "PubChem BioAssay (NCI)", "assay_in_all_cases": "inhibition of tumour cell growth, NCI panel, 48 h", "key": {"786-0 renal": {"system": "786-0 renal"}, "A498 renal": {"system": "A498 renal"}, "ACHN renal": {"system": "ACHN renal"}, "BT-549 breast": {"system": "BT-549 breast"}, "CAKI-1 renal": {"system": "CAKI-1 renal"}, "COLO 205 colon": {"system": "COLO 205 colon"}, "DU-145 prostate": {"system": "DU-145 prostate"}, "EKVX NSCLC": {"system": "EKVX NSCLC"}, "HCT-116 colon": {"system": "HCT-116 colon"}, "HOP-62 NSCLC": {"system": "HOP-62 NSCLC"}, "HOP-92 NSCLC": {"system": "HOP-92 NSCLC"}, "HS 578T breast": {"system": "HS 578T breast"}, "IGROV1 ovarian": {"system": "IGROV1 ovarian"}, "LOX IMVI melanoma": {"system": "LOX IMVI melanoma"}, "M14 melanoma": {"system": "M14 melanoma"}, "MDA-MB-435": {"system": "MDA-MB-435"}, "NCI-H226 lung": {"system": "NCI-H226 lung"}, "NCI-H460 lung": {"system": "NCI-H460 lung"}, "NCI-H522 lung": {"system": "NCI-H522 lung"}, "NCI/ADR-RES ovarian": {"system": "NCI/ADR-RES ovarian"}, "OVCAR-4 ovarian": {"system": "OVCAR-4 ovarian"}, "OVCAR-5 ovarian": {"system": "OVCAR-5 ovarian"}, "OVCAR-8 ovarian": {"system": "OVCAR-8 ovarian"}, "PC-3 prostate": {"system": "PC-3 prostate"}, "RPMI-8226 leukemia": {"system": "RPMI-8226 leukemia"}, "RXF 393 renal": {"system": "RXF 393 renal"}, "SF-268 CNS": {"system": "SF-268 CNS"}, "SF-295 CNS": {"system": "SF-295 CNS"}, "SF-539 CNS": {"system": "SF-539 CNS"}, "SK-MEL-2 melanoma": {"system": "SK-MEL-2 melanoma"}, "SK-MEL-28 melanoma": {"system": "SK-MEL-28 melanoma"}, "SK-MEL-5 melanoma": {"system": "SK-MEL-5 melanoma"}, "SK-OV-3 ovarian": {"system": "SK-OV-3 ovarian"}, "SN12C renal": {"system": "SN12C renal"}, "SNB-19 CNS": {"system": "SNB-19 CNS"}, "SNB-75 CNS": {"system": "SNB-75 CNS"}, "SW-620 colon": {"system": "SW-620 colon"}, "T-47D breast": {"system": "T-47D breast"}, "TK-10 renal": {"system": "TK-10 renal"}, "UACC-257 melanoma": {"system": "UACC-257 melanoma"}, "UACC-62 melanoma": {"system": "UACC-62 melanoma"}, "UO-31 renal": {"system": "UO-31 renal"}}, "note": "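Values below derive from 48-hour exposures of cells grown in 96-well plates, with endpoints linearly interpolated between the two concentrations bracketing the appropriate inhibition level. GI50: concentration for 50% inhibition of growth. TGI marks complete inhibition of growth.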", "data": [{"compound": "OC1CCN(CCCOc2c3ccccc3nc3c2oc2ccc(Cl)cc23)CC1", "values": [{"measurement": "GI50", "setting": "786-0 renal", "value": 1080, "unit": "nM"}, {"measurement": "TGI", "setting": "786-0 renal", "value": 3610, "unit": "nM"}, {"measurement": "GI50", "setting": "A498 renal", "value": 2530, "unit": "nM"}, {"measurement": "TGI", "setting": "A498 renal", "value": 7590, "unit": "nM"}, {"measurement": "GI50", "setting": "ACHN renal", "value": 534, "unit": "nM"}, {"measurement": "TGI", "setting": "ACHN renal", "value": 10300, "unit": "nM"}, {"measurement": "GI50", "setting": "BT-549 breast", "value": 3040, "unit": "nM"}, {"measurement": "TGI", "setting": "BT-549 breast", "value": 10100, "unit": "nM"}, {"measurement": "GI50", "setting": "CAKI-1 renal", "value": 710, "unit": "nM"}, {"measurement": "TGI", "setting": "CAKI-1 renal", "value": 2290, "unit": "nM"}, {"measurement": "GI50", "setting": "COLO 205 colon", "value": 755, "unit": "nM"}, {"measurement": "TGI", "setting": "COLO 205 colon", "value": 2210, "unit": "nM"}, {"measurement": "GI50", "setting": "DU-145 prostate", "value": 1060, "unit": "nM"}, {"measurement": "TGI", "setting": "DU-145 prostate", "value": 3570, "unit": "nM"}, {"measurement": "GI50", "setting": "EKVX NSCLC", "value": 2410, "unit": "nM"}, {"measurement": "TGI", "setting": "EKVX NSCLC", "value": 13200, "unit": "nM"}, {"measurement": "GI50", "setting": "HCT-116 colon", "value": 414, "unit": "nM"}, {"measurement": "TGI", "setting": "HCT-116 colon", "value": 2360, "unit": "nM"}, {"measurement": "GI50", "setting": "HOP-62 NSCLC", "value": 1740, "unit": "nM"}, {"measurement": "TGI", "setting": "HOP-62 NSCLC", "value": 7570, "unit": "nM"}, {"measurement": "GI50", "setting": "HOP-92 NSCLC", "value": 713, "unit": "nM"}, {"measurement": "TGI", "setting": "HOP-92 NSCLC", "value": 5040, "unit": "nM"}, {"measurement": "GI50", "setting": "HS 578T breast", "value": 2280, "unit": "nM"}, {"measurement": "TGI", "setting": "HS 578T breast", "value": 13400, "unit": "nM"}, {"measurement": "GI50", "setting": "IGROV1 ovarian", "value": 1250, "unit": "nM"}, {"measurement": "TGI", "setting": "IGROV1 ovarian", "value": 6280, "unit": "nM"}, {"measurement": "GI50", "setting": "LOX IMVI melanoma", "value": 372, "unit": "nM"}, {"measurement": "TGI", "setting": "LOX IMVI melanoma", "value": 1520, "unit": "nM"}, {"measurement": "GI50", "setting": "M14 melanoma", "value": 1450, "unit": "nM"}, {"measurement": "TGI", "setting": "M14 melanoma", "value": 3690, "unit": "nM"}, {"measurement": "GI50", "setting": "MDA-MB-435", "value": 1230, "unit": "nM"}, {"measurement": "TGI", "setting": "MDA-MB-435", "value": 2560, "unit": "nM"}, {"measurement": "GI50", "setting": "NCI-H226 lung", "value": 1720, "unit": "nM"}, {"measurement": "TGI", "setting": "NCI-H226 lung", "value": 3750, "unit": "nM"}, {"measurement": "GI50", "setting": "NCI-H460 lung", "value": 440, "unit": "nM"}, {"measurement": "TGI", "setting": "NCI-H460 lung", "value": 1850, "unit": "nM"}, {"measurement": "GI50", "setting": "NCI-H522 lung", "value": 1110, "unit": "nM"}, {"measurement": "TGI", "setting": "NCI-H522 lung", "value": 2730, "unit": "nM"}, {"measurement": "GI50", "setting": "NCI/ADR-RES ovarian", "value": 579, "unit": "nM"}, {"measurement": "TGI", "setting": "NCI/ADR-RES ovarian", "value": 4910, "unit": "nM"}, {"measurement": "GI50", "setting": "OVCAR-4 ovarian", "value": 1230, "unit": "nM"}, {"measurement": "TGI", "setting": "OVCAR-4 ovarian", "value": 3660, "unit": "nM"}, {"measurement": "GI50", "setting": "OVCAR-5 ovarian", "value": 1710, "unit": "nM"}, {"measurement": "TGI", "setting": "OVCAR-5 ovarian", "value": 6040, "unit": "nM"}, {"measurement": "GI50", "setting": "OVCAR-8 ovarian", "value": 991, "unit": "nM"}, {"measurement": "TGI", "setting": "OVCAR-8 ovarian", "value": 11900, "unit": "nM"}, {"measurement": "GI50", "setting": "PC-3 prostate", "value": 1280, "unit": "nM"}, {"measurement": "TGI", "setting": "PC-3 prostate", "value": 4040, "unit": "nM"}, {"measurement": "GI50", "setting": "RPMI-8226 leukemia", "value": 1330, "unit": "nM"}, {"measurement": "TGI", "setting": "RPMI-8226 leukemia", "value": 4030, "unit": "nM"}, {"measurement": "GI50", "setting": "RXF 393 renal", "value": 1020, "unit": "nM"}, {"measurement": "TGI", "setting": "RXF 393 renal", "value": 2310, "unit": "nM"}, {"measurement": "GI50", "setting": "SF-268 CNS", "value": 1080, "unit": "nM"}, {"measurement": "TGI", "setting": "SF-268 CNS", "value": 10000, "unit": "nM"}, {"measurement": "GI50", "setting": "SF-295 CNS", "value": 1490, "unit": "nM"}, {"measurement": "TGI", "setting": "SF-295 CNS", "value": 6450, "unit": "nM"}, {"measurement": "GI50", "setting": "SF-539 CNS", "value": 1070, "unit": "nM"}, {"measurement": "TGI", "setting": "SF-539 CNS", "value": 2300, "unit": "nM"}, {"measurement": "GI50", "setting": "SK-MEL-2 melanoma", "value": 2450, "unit": "nM"}, {"measurement": "TGI", "setting": "SK-MEL-2 melanoma", "value": 5990, "unit": "nM"}, {"measurement": "GI50", "setting": "SK-MEL-28 melanoma", "value": 1640, "unit": "nM"}, {"measurement": "TGI", "setting": "SK-MEL-28 melanoma", "value": 3100, "unit": "nM"}, {"measurement": "GI50", "setting": "SK-MEL-5 melanoma", "value": 1780, "unit": "nM"}, {"measurement": "TGI", "setting": "SK-MEL-5 melanoma", "value": 3250, "unit": "nM"}, {"measurement": "GI50", "setting": "SK-OV-3 ovarian", "value": 2420, "unit": "nM"}, {"measurement": "TGI", "setting": "SK-OV-3 ovarian", "value": 7070, "unit": "nM"}, {"measurement": "GI50", "setting": "SN12C renal", "value": 883, "unit": "nM"}, {"measurement": "TGI", "setting": "SN12C renal", "value": 17200, "unit": "nM"}, {"measurement": "GI50", "setting": "SNB-19 CNS", "value": 1400, "unit": "nM"}, {"measurement": "TGI", "setting": "SNB-19 CNS", "value": 18200, "unit": "nM"}, {"measurement": "GI50", "setting": "SNB-75 CNS", "value": 1970, "unit": "nM"}, {"measurement": "TGI", "setting": "SNB-75 CNS", "value": 10900, "unit": "nM"}, {"measurement": "GI50", "setting": "SW-620 colon", "value": 444, "unit": "nM"}, {"measurement": "TGI", "setting": "SW-620 colon", "value": 2090, "unit": "nM"}, {"measurement": "GI50", "setting": "T-47D breast", "value": 3540, "unit": "nM"}, {"measurement": "TGI", "setting": "T-47D breast", "value": 20700, "unit": "nM"}, {"measurement": "GI50", "setting": "TK-10 renal", "value": 2750, "unit": "nM"}, {"measurement": "TGI", "setting": "TK-10 renal", "value": 18300, "unit": "nM"}, {"measurement": "GI50", "setting": "UACC-257 melanoma", "value": 1750, "unit": "nM"}, {"measurement": "TGI", "setting": "UACC-257 melanoma", "value": 3530, "unit": "nM"}, {"measurement": "GI50", "setting": "UACC-62 melanoma", "value": 1990, "unit": "nM"}, {"measurement": "TGI", "setting": "UACC-62 melanoma", "value": 4820, "unit": "nM"}, {"measurement": "GI50", "setting": "UO-31 renal", "value": 1230, "unit": "nM"}, {"measurement": "TGI", "setting": "UO-31 renal", "value": 3290, "unit": "nM"}]}]}
